Assays:
synthetic Aβ(1-40) = target: T1, synthetic Aβ(1-40) (Homo sapiens, UniProt P05067); test: Inhibition of Aβ(1-40) beta-pleated sheet formation (ThT fluorescence); format: biochemical; details: 10 μM compound, ThT 3 μM, PBS pH 6.0, 12 hours; for inhibition at 10 µM: read-out: inhibition of Aβ(1-40) beta-pleated sheet formation compared to the controls
T1 construct: 3 μL of Aβ(1-40)(3 μg) prepared with dH2O
Text: The deposition of amyloid β-peptide (Aβ) is associated with the development of Alzheimer's disease. See, for example, G. G. Glenner et al. (1984) Biochem. Biophys. Res. Commun., 120:885-890; and R. E. Tanzi (1989) Ann. Med., 21:91-94. Accordingly, compounds which effectively disrupt the formation of Aβ(1-40) or Aβ(1-42) beta-pleated sheets are potentially useful for preventing and/or reversing such amyloid deposits. Thioflavin T (ThT) is known to rapidly associate with beta-pleated sheets, particularly the aggregated fibrils of synthetic Aβ(1-40). This association gives rise to a new excitation maximum at 440 nm and to enhanced emission at 490 nm.
The experiments were performed using a CytoFluor II fluorescence plate reader having the following parameters:
Into each well was aliquoted 95 μl of ThT (3 μM) prepared in PBS (pH 6.0), 2 μL of the compound to be tested (10 μM) prepared with 0.05% of methylcellulose in PBS (pH 6.0), and 3 μL of Aβ(1-40)(3 μg) prepared with dH2O (the compounds prepared in Examples 1, 3, 4, 5, 6, 7, 8, 9, 11 and 12 were tested). The fluorescence measurement began when the Aβ(1-40) was added and continued for a total of 12 hours. The percent inhibition of beta-pleated sheet formation was calculated from the relative fluorescence unit difference between aggregation in the presence and in the absence of the test compounds.

THP-1 cells = test: Reduction of β-amyloid-induced increased IL-1β release (ELISA); format: cell-based, human; details: 100 μM test compound with LPS and Aβ25-35, 48 hours
Description: THP-1 cells, a human monocyte cell line from American Type Culture Collection, were grown in RPMI-1640 medium plus 10% fetal bovine serum (FBS, not heat-inactivated) in T-flasks. The medium was changed every two days by spinning down (800 rpm, 5 minutes) the cells and added the same fresh medium. Alternatively, the cultures were maintained by the addition of fresh medium. The cultures were maintained at a cell concentration ranging from between 1×10^5 and 1×10^6 cells/mL. Because sera may contain unknown factors which can affect macrophage/monocyte IL-1 production, the FBS was reduced to 5% for 24 hours. The FBS was further reduced to 2% over two days prior to starting each experiment. The cells were collected by centrifugation and resuspended to 2% FBS. Cell numbers were calculated and cells were plated on 24-well plates (3×10^5 cells/0.6 mL/well). Cells were then treated with LPS (0.5 μg/ml or 0-10 μg/ml for LPS dose-response experiments) alone or in combination with Aβ peptides (5 μM or 0.05-5 μM for dose-response experiments). When determining the effect of the test compounds on cytokine release, 100 μM of the test compound was added with the LPS and Aβ25-35 and this mixture was incubated for 48 hours prior to performing ELISA.
IL-1β secretions into medium by LPS-stimulated THP-1 cells, in the presence or absence of amyloid peptides and a test compound, were assayed with a commercially available ELISA kit (R & D Systems). Briefly, a microtiter plate coated with a murine monoclonal antibody to human IL-1β was supplied by the manufacturer. Standards and samples were pipetted into the wells and any IL-1β present was bound by the immobilized antibody. Unbound proteins were washed away and a horseradish peroxidase-linked polyclonal antibody specific for IL-1β was added to the wells to “sandwich”the IL-1β bound in the initial step. […] Color development was stopped with 2 N sulfuric acid and the optical density of the standard and the test samples was measured at 450 nm. The amounts of IL-1β present in the samples were calculated based upon a standard curve. […]

[1] = test system: primary neuronal/astrocyte cultures; test: Protection against Aβ(25-35)-induced neuronal cell loss; format: cell-based, Sprague Dawley rat; details: 100 μM test compound, 30 μM Aβ(25-35), 96 hours
Description: Patients with Alzheimer's disease are known to suffer a progressive loss of neuronal cells. See, for example, P. J. Whitehause et al., (1982) Science, 215:1237-1239. […] Sprague Dawley rat hippocampus of 18-day-gestation embryos was excised and then dissociated by trituration to prepare primary neuronal/astrocyte cultures. Cells (3×10^5) were plated on 35 mm poly-D-lysine-coated plates containing Eagle's minimum essential medium supplemented with 10% fetal bovine serum. After 3-5 hours, the original medium was removed and replaced with 1 mL of fresh medium. Cultures were maintained at 37° C. in a 5% CO2/95% air humidified incubator.
To the cells (7 DIV) was added 30 μM of Aβ(25-35) dissolved in dH2O (stored at −20° C.) and 100 μM of the test compound (i.e., a compound of Example 1, 3, 4, 5, 6, 7, 8, 12 or 13 above) in 1% methylcellulose. Controls were also conducted without the test compound. The percentage of morphologically viable neurons was determined counting the number of viable neurons after 96 hours treatment compared to the number of neurons before treatment in the same premarked culture regions (three regions/culture, n=6).

[2] = Free radical trapping, DCF oxidation, tert-butyl hydroperoxide system; format: biochemical; details: 100 μM test compound, 25 μM tert-butyl hydroperoxide, 50 μM DCF in MEM, 37° C., 2 hrs
Description: (§1) Dichlorofluorescein (DCF) is a compound that fluoresces when oxidized by reactive oxygen species (ROS), such as hydroxyl, peroxyl, or alkoxyl free radicals. Test compounds were evaluated for their ability to scavenge radicals by determining their capacity to prevent the DCF oxidation in a radical generating environment. Two radical generating systems were used: (i) ferrous iron and (ii) tert-butyl hydroperoxide. When ferrous iron is placed in normoxic solution, it autooxidizes to produce ROS in the form of hydroxyl radicals, superoxide anion free radicals, and hydrogen peroxide. Similarly, when tert-butyl hydroperoxide is placed in non-chelated media, trace metals catalyze its oxidation to yield alkoxy, peroxyl, and alkyl free radicals.
(§2) In this assay, either 100 μM FeSO4 or 25 μM tert-butyl hydroperoxide were mixed with 50 μM DCF and 100 μM of the test compound in MEM and the mixture was incubated at 37° C. for 2 hrs. The fluorescence wavelengths measured were 485 nm for excitation and 530 nm for emission. In these tests, N-isopropyl-α-(2-sulfofuran-5-yl)nitrone sodium salt (prepared in Example 1 above) reduced fluorescence by 20% in the Fe^+2 assay and by 13% in the tert-butyl hydroperoxide assay. In comparison, a known free radical trap, N-tert-butyl-α-phenylnitrone (PBN) reduced fluorescence by 48% in the Fe^+2 assay and by 9% in the tert-butyl hydroperoxide assay.

[3] = Free radical trapping, DCF oxidation, ferrous iron system; format: biochemical; details: 100 μM test compound, 100 μM FeSO4, 50 μM DCF in MEM, 37° C., 2 hrs
Description: as §1, §2

T1 sequence (P05067 672-711 limits assumed): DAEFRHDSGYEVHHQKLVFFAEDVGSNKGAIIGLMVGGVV

Molecule `CCCCCC[N+]([O-])=Cc1ccc(S(=O)(=O)O)o1` [Example 5, N-n-Hexyl-α-(2-sulfofuran-5-yl)nitrone] has an inhibition at 10 µM (synthetic Aβ(1-40)) of 15 to 71%.
In the case of `CC(C)[N+]([O-])=Cc1ccc(S(=O)(=O)N2CCN(C)CC2)o1` [Example 14, N-Isopropyl-α-[2-(N-4-methylpiperazin-1-ylsulfonyl)furan-5-yl]nitrone], the “reduction of the β-amyloid-induced increased release of interleukin-1β compared to the controls” value (THP-1 cells) is reported as “did not significantly reduce”.
For `O=S(=O)(O)c1ccc(C=[N+]([O-])Cc2ccccc2)o1` [Example 9, N-Benzyl-α-(2-sulfofuran-5-yl)nitrone], the inhibition at 10 µM (synthetic Aβ(1-40)) was 15 to 71%.
In the case of `CCCC[N+]([O-])=Cc1ccc(S(=O)(=O)O)o1` [Example 3, N-n-Butyl-α-(2-sulfofuran-5yl)nitrone], the “inhibition of Aβ(1-40) beta-pleated sheet formation compared to the controls” value (from here on “inhibition … compared to the controls”) (synthetic Aβ(1-40)) is reported as “did not significantly reduce”.
Molecule `O=S(=O)(O)c1ccc(C=[N+]([O-])C2CCCCC2)o1` [Example 6, N-Cyclohexyl-α-(2-sulfofuran-5-yl)nitrone] has an inhibition at 10 µM (synthetic Aβ(1-40)) of 15 to 71%.
For “N-Adamantyl-α-(2-sulfofuran-5-yl)nitrone [Example 8]”, the “inhibition … compared to the controls” value (synthetic Aβ(1-40)) was “did not significantly reduce”.
In the case of `CC(C)(C)[N+]([O-])=Cc1ccc(S(=O)(=O)O)o1` [Example 4, N-tert-Butyl-α-(2-sulfofuran-5-yl)nitrone], the “inhibition … compared to the controls” value (synthetic Aβ(1-40)) is reported as “did not significantly reduce” and the “reduction of Aβ(25-35)-induced neuronal cell loss compared to the controls” value [1] is reported as “did not significantly reduce”.
In the case of `CCN(CC)S(=O)(=O)c1ccc(C=[N+]([O-])C(C)C)o1` [Example 12, N-Isopropyl-α-[2-(N,N-diethylsulfamoyl)furan-5-yl]nitrone], the inhibition at 10 µM (synthetic Aβ(1-40)) is reported as 15 to 71%.
With `CC(C)[N+]([O-])=Cc1ccc(S(=O)(=O)N2CCOCC2)o1` [Example 11, N-Isopropyl-α-[2-(N-morpholinosulfonyl)furan-5-yl]nitrone] the “reduction of the β-amyloid-induced increased release of interleukin-1β compared to the controls” value (THP-1 cells) was “did not significantly reduce”.
With `CC(C)(C)[N+]([O-])=Cc1ccccc1` [PBN, N-tert-butyl-α-phenylnitrone, reference compound] the “reduced fluorescence in the tert-butyl hydroperoxide assay” value [2] was 9% and the “reduced fluorescence in the Fe^+2 assay” value [3] was 48%.
With `CC(C)[N+]([O-])=Cc1ccc(S(=O)(=O)N2CCN(C)CC2)o1.Cl` [Example 15, N-Isopropyl-α-[2-(N-4-methylpiperazin-1-ylsulfonyl)-furan-5-yl]nitrone Hydrochloride] the “reduction of the β-amyloid-induced increased release of interleukin-1β compared to the controls” value (THP-1 cells) was “did not significantly reduce”.
For `CC(C)(C)CC(C)(C)[N+]([O-])=Cc1ccc(S(=O)(=O)O)o1` [Example 7, N-tert-Octyl-α-(2-sulfofuran-5-yl)nitrone], the inhibition at 10 µM (synthetic Aβ(1-40)) was 15 to 71%.
